The text below walks through data of patent publication US20090176807A1, “GLUCOCORTICOID MIMETICS, METHODS OF MAKING THEM, PHARMACEUTICAL COMPOSITIONS, AND USES THEREOF” (priority 2005, published 2009).

Data set [1] deals with T1, human glucocorticoid receptor (GR) complex (Homo sapiens, UniProt P04150).
T1 construct: made in house; host or cells: insect expression system (baculovirus lysate)
T1 sequence (P04150 1-777): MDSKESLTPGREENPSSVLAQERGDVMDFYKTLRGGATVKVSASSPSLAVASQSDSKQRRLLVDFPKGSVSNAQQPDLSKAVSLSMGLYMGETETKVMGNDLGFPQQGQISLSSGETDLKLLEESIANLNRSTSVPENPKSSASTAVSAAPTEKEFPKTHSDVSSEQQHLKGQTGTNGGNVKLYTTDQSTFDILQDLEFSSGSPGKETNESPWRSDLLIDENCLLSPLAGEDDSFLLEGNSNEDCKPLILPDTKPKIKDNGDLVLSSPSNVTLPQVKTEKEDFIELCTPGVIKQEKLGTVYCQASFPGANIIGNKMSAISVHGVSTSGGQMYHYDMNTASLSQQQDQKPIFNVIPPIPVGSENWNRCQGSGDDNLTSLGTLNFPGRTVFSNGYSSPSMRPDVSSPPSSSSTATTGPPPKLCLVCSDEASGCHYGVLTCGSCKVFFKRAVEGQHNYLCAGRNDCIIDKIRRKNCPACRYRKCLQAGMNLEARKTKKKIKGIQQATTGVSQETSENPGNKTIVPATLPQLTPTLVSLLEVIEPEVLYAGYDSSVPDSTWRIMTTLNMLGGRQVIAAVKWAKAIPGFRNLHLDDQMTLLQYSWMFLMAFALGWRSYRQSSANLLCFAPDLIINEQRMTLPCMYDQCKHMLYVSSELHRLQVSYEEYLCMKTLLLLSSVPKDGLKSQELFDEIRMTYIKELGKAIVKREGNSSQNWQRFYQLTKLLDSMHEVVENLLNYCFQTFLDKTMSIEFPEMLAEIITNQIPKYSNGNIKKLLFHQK
Put plainly: Glucocorticoid receptor competitive binding assay (fluorescence polarization). As to conditions: competition with TAMRA-labeled dexamethasone, result in words only. On the procedure: Compounds of the invention were evaluated for binding to the steroid receptor by a fluorescence polarization competitive binding assay.
The wavelengths for maximum excitation and emission of the fluorescent probe should first be measured. An example of such a probe is rhodamine (TAMRA)-labeled dexamethasone.
The affinity of the probe for the steroid receptor was then determined in a titration experiment. The fluorescence polarization value of the probe in assay buffer was measured on an SLM-8100 fluorometer using the excitation and emission maximum values described above. Aliquots of expression vector lysate were added and fluorescence polarization was measured after each addition until no further change in polarization value was observed. Non-linear least squares regression analysis was used to calculate the dissociation constant of the probe from the polarization values obtained for lysate binding to the probe.
This assay uses fluorescence polarization (FP) to quantitate the ability of test compounds to compete with tetramethyl rhodamine (TAMRA)-labeled dexamethasone for binding to a human glucocorticoid receptor (GR) complex prepared from an insect expression system. The assay buffer was: 10 mM TES, 50 mM KCl, 20 mM Na2MoO4.2H2O, 1.5 mM EDTA, 0.04% w/v CHAPS, 10% v/v glycerol, 1 mM dithiothreitol, pH 7.4. Test compounds were dissolved to 1 mM in neat DMSO and then further diluted to 10× assay concentration in assay buffer supplemented with 10% v/v DMSO. Test compounds were serially diluted at 10× assay concentrations in 10% DMSO-containing buffer in 96-well polypropylene plates. Binding reaction mixtures were prepared in 96-well black Dynex microtiter plates by sequential addition of the following assay components to each well: 15 μL of 10× test compound solution, 85 μL of GR-containing baculovirus lysate diluted 1:170 in assay buffer, and 50 μL of 15 nM TAMRA-labeled dexamethasone. Positive controls were reaction mixtures containing no test compound; negative controls (blanks) were reaction mixtures containing 0.7 μM to 2 μM dexamethasone. […] IC50 values were determined by iterative non-linear curve fitting of the FP signal data to a 4-parameter logistic equation.
On the technique in general: In fluorescence polarisation assays a small probe gives low polarisation when free and higher when bound to something large.

Data set [2] concerns Human osteosarcoma MG-63 cells. Put plainly: Inhibition of osteocalcin production from osteoblast cell line MG-63. The note with it: Vitamin D 10 nM, 48 hours, osteocalcin ELISA, result in words only. It counts as cell-based. Here is the method: Human osteosarcoma MG-63 cells (ATCC, Cat. No. CRL-1427) are plated on 96 well plates at 20,000 cells per well the day before use in 200 μL media of 99% D-MEM/F-12 (Gibco-Invitrogen, Cat. No. 11039-021), supplemented with 1% penicillin and streptomycin (Gibco-Invitrogen, Cat. No. 15140-122), 10 μg/mL Vitamin C (Sigma, Cat. No. A-4544), and 1% charcoal filtered Fetal Bovine Serum (HyClone, Cat. No. SH30068.02). The next day, wells are replaced with fresh media. Cells are treated with Vitamin D (Sigma, Cat. No. D1530) to a final concentration of 10 nM, and with the test compounds in concentrations of 10^−6 M to 10^−9 M, in a total volume of 200 μL per well. Samples are done in duplicates. […] Positive control wells receive Vitamin D only, without compounds, and represent maximum (100%) amount of osteocalcin production. Plates are incubated at 37° C. incubator for 48 hours and supernatants are harvested at the end of incubation. Amounts of osteocalcin in the supernatants are determined by the Glype osteocalcin ELISA kit (Zymed, Cat. No. 99-0054) according to manufacture's protocol. Inhibition of osteocalcin by test compounds is expressed in percentage relative to positive controls. IC50 values of the test compounds are derived by non-lineal curve fitting.
In general terms: In an ELISA, binding on a coated surface is turned into a signal by an enzyme label.

`CC(C)(CC(O)(Cn1cc(Cl)c(=O)c2cnccc21)C(F)(F)F)c1cccc2c1OCC2` (stereo not drawn) [3-Chloro-1-[4-(2,3-dihydrobenzofuran-7-yl)-2-hydroxy-4-methyl-2-trifluoromethylpentyl]-1H-[1,6]naphthyridin-4-one]: the melting point (commonly the temperature, or range, at which the solid turns liquid) was 158 to 160 °C. Besides, the “activity in the GR binding assay” value in data set [1] was “potent activity”.

Regarding `CC(C)(CC(O)(Cn1cc(Br)c(=O)c2sccc21)C(F)(F)F)c1cccc2c1OCO2` (stereo not drawn) [4-(4-Benzo[1,3]dioxol-4-yl-2-hydroxy-4-methyl-2-trifluoromethylpentyl)-6-bromo-4H-thieno[3,2-b]pyridin-7-one], the melting point fell in the range of 197 to 198 °C. Moreover, the “activity in the GR binding assay” value in data set [1] is on record as “potent activity”.

As for `CC(C)(CC(O)(Cn1ccc(=O)c2sccc21)C(F)(F)F)c1cc(-c2cccnc2)ccc1O` (stereo not drawn) [4-[2-Hydroxy-4-(2-hydroxy-5-pyridin-3-ylphenyl)-4-methyl-2-trifluoromethylpentyl]-4H-thieno[3,2-b]pyridin-7-one], the “activity in the GR binding assay” value in data set [1] is given as “potent activity”. The “inhibition of the vitamin D stimulated production of osteocalcin” value (shortened to “inhibition … of osteocalcin”) in data set [2] was “inhibit the vitamin D stimulated production of osteocalcin”.

`CC(C)(CC(O)(Cn1ccc(=O)c2sccc21)C(F)(F)F)c1cc(F)ccc1O` (stereo not drawn) [4-[4-(5-Fluoro-2-hydroxyphenyl)-2-hydroxy-4-methyl-2-trifluoromethylpentyl]-4H-thieno[3,2-b]pyridin-7-one]: the “activity in the GR binding assay” value in data set [1] is recorded as “potent activity”. In addition, the “inhibition … of osteocalcin” value in data set [2] is on record as “inhibit the vitamin D stimulated production of osteocalcin”.

`CC(C)(CC(O)(Cn1cc(Cl)c(=O)c2sccc21)C(F)(F)F)c1cc(-c2cccnc2)ccc1O` (stereo not drawn) [6-Chloro-4-[2-hydroxy-4-(2-hydroxy-5-pyridin-3-ylphenyl)-4-methyl-2-trifluoromethylpentyl]-4H-thieno[3,2-b]pyridin-7-one]: in data set [1], the “activity in the GR binding assay” value is “potent activity”. For the same molecule, the “inhibition … of osteocalcin” value in data set [2] is listed as “inhibit the vitamin D stimulated production of osteocalcin”.

Turning to `CC(C)(CC(O)(Cn1cc(Cl)c(=O)c2sccc21)C(F)(F)F)c1cc(-c2cncnc2)ccc1O` (stereo not drawn) [6-Chloro-4-[2-hydroxy-4-(2-hydroxy-5-pyrimidin-5-ylphenyl)-4-methyl-2-trifluoromethylpentyl]-4H-thieno[3,2-b]pyridin-7-one], in data set [1], the “activity in the GR binding assay” value is reported as “potent activity”. Further, the “inhibition … of osteocalcin” value in data set [2] was “inhibit the vitamin D stimulated production of osteocalcin”.

Regarding `CC(C)(CC(O)(Cn1cc(Cl)c(=O)c2sccc21)C(F)(F)F)c1cc(-c2cccnc2)cc2c1OCC2` (stereo not drawn) [6-Chloro-4-[2-hydroxy-4-methyl-4-(5-pyridin-3-yl-2,3-dihydrobenzofuran-7-yl)-2-trifluoromethylpentyl]-4H-thieno[3,2-b]pyridin-7-one], the “activity in the GR binding assay” value in data set [1] is “potent activity”.

For `CC(C)(CC(O)(Cn1cc(Cl)c(=O)c2sccc21)C(F)(F)F)c1cc(-c2cncnc2)cc2c1OCC2` (stereo not drawn) [6-Chloro-4-[2-hydroxy-4-methyl-4-(5-pyrimidin-5-yl-2,3-dihydrobenzofuran-7-yl)-2-trifluoromethylpentyl]-4H-thieno[3,2-b]pyridin-7-one], the “activity in the GR binding assay” value in data set [1] is on record as “potent activity”.

Take `CC(C)(CC(O)(Cn1cc(Cl)c(=O)c2sccc21)C(F)(F)F)c1cccc2c1OCC2` (stereo not drawn) [6-Chloro-4-[4-(2,3-dihydrobenzofuran-7-yl)-2-hydroxy-4-methyl-2-trifluoromethylpentyl]-4H-thieno[3,2-b]pyridin-7-one]: the “activity in the GR binding assay” value in data set [1] is reported as “potent activity”.
